Data taken from the NIST ThermoML archive (doi:10.1016/j.fluid.2013.09.022).

Experiment: xn = mol fraction of the nth substance listed
Details: Gas, isochoric method

F/C=C/C(F)(F)F [trans-1,3,3,3-tetrafluoropropene] + O=C=O
Details | molar volume [m3/mol]
282.98 K, 1378 kPa, x2 = 0.859 | 0.00149
292.75 K, 1458.4 kPa, x2 = 0.859 | 0.001491
293.11 K, 1207.5 kPa, x2 = 0.733 | 0.001776
293.15 K, 1053.5 kPa, x2 = 0.642 | 0.002057
302.65 K, 741.2 kPa, x2 = 0.254 | 0.002778
302.78 K, 834.7 kPa, x2 = 0.331 | 0.002626
302.95 K, 1530.5 kPa, x2 = 0.859 | 0.001492
303.12 K, 1086.9 kPa, x2 = 0.563 | 0.002066
303.12 K, 1281.1 kPa, x2 = 0.733 | 0.001777
303.15 K, 934.1 kPa, x2 = 0.459 | 0.002372
303.19 K, 1105.4 kPa, x2 = 0.642 | 0.002058
313.09 K, 773.6 kPa, x2 = 0.155 | 0.002926
313.1 K, 879.9 kPa, x2 = 0.331 | 0.002627
313.1 K, 1598.3 kPa, x2 = 0.859 | 0.001492
313.11 K, 824.7 kPa, x2 = 0.254 | 0.00278
313.11 K, 979 kPa, x2 = 0.459 | 0.002373
313.14 K, 1137.1 kPa, x2 = 0.563 | 0.002067
313.15 K, 1337.5 kPa, x2 = 0.733 | 0.001778
313.18 K, 1155.7 kPa, x2 = 0.642 | 0.002059
323.03 K, 1183.9 kPa, x2 = 0.563 | 0.002067
323.04 K, 918.1 kPa, x2 = 0.331 | 0.002628
323.06 K, 861.2 kPa, x2 = 0.254 | 0.002781
323.06 K, 1392.7 kPa, x2 = 0.733 | 0.001778
323.07 K, 808.6 kPa, x2 = 0.155 | 0.002928
323.07 K, 1661.1 kPa, x2 = 0.859 | 0.001493
323.09 K, 1019.8 kPa, x2 = 0.459 | 0.002374
323.12 K, 1201.6 kPa, x2 = 0.642 | 0.00206
332.99 K, 1059.7 kPa, x2 = 0.459 | 0.002375
333.02 K, 897.5 kPa, x2 = 0.254 | 0.002782
333.03 K, 1246.4 kPa, x2 = 0.642 | 0.002061
333.04 K, 1723.3 kPa, x2 = 0.859 | 0.001494
333.05 K, 843.8 kPa, x2 = 0.155 | 0.002929
333.07 K, 955.4 kPa, x2 = 0.331 | 0.002629
333.08 K, 1445.3 kPa, x2 = 0.733 | 0.001779
333.15 K, 1230.3 kPa, x2 = 0.563 | 0.002068
342.9 K, 1274.8 kPa, x2 = 0.563 | 0.002069
342.93 K, 1098.9 kPa, x2 = 0.459 | 0.002376
343.01 K, 1497.2 kPa, x2 = 0.733 | 0.00178
343.02 K, 991.5 kPa, x2 = 0.331 | 0.00263
343.05 K, 877.3 kPa, x2 = 0.155 | 0.00293
343.06 K, 1785.7 kPa, x2 = 0.859 | 0.001494
343.07 K, 1291.7 kPa, x2 = 0.642 | 0.002062
343.2 K, 933 kPa, x2 = 0.254 | 0.002783
352.96 K, 1140 kPa, x2 = 0.459 | 0.002377
353.01 K, 1320.4 kPa, x2 = 0.563 | 0.00207
353.02 K, 910 kPa, x2 = 0.155 | 0.002931
353.03 K, 1336.3 kPa, x2 = 0.642 | 0.002062
353.03 K, 1847.2 kPa, x2 = 0.859 | 0.001495
353.1 K, 1027.7 kPa, x2 = 0.331 | 0.002631
353.12 K, 967.3 kPa, x2 = 0.254 | 0.002784
353.14 K, 1549.7 kPa, x2 = 0.733 | 0.001781
362.89 K, 1178.4 kPa, x2 = 0.459 | 0.002378
362.94 K, 1380.5 kPa, x2 = 0.642 | 0.002063
363.03 K, 1000.8 kPa, x2 = 0.254 | 0.002786
363.05 K, 1365.6 kPa, x2 = 0.563 | 0.002071
363.08 K, 942.8 kPa, x2 = 0.155 | 0.002933
363.08 K, 1908.8 kPa, x2 = 0.859 | 0.001496
363.12 K, 1601.3 kPa, x2 = 0.733 | 0.001781
363.14 K, 1063.4 kPa, x2 = 0.331 | 0.002632
